From patent US10738028B2, “Spiro three-membered ring, spiro five-membered ring peptide deformylase inhibitor and use thereof in antibacteria and anti-tumor” (priority 2016, dated 2020)
In brackets after ≈: the same amount, converted by molar mass. Read-outs that look alike come from different tables or passages of the source.

Key:
Type in all cases: cell-based
[1] = system: methicillin-sensitive Staphylococcus epidermidis (MSSE); assay: MIC, two-fold agar dilution (CLSI), clinical isolates
Outline: (§1)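 Following the American Clinical and Laboratory Standards Institute procedure, agar two-fold dilution served to determine minimum inhibitory concentrations.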

[2] = system: Enterococcus faecium (EFM); assay: as above
Outline: as §1

[3] = system: methicillin-resistant Staphylococcus aureus (MRSA); assay: as above
Outline: as §1

[4] = system: Escherichia coli (including ESBLs, non-ESBLs); assay: as above
Outline: as §1

[5] = system: Moraxella catarrhalis (BCA); assay: as above; conditions: for Anti-bacterial activity (MIC), strain BCA 14-10: clinical isolate BCA 14-10
Outline: as §1

[6] = system: Enterococcus faecalis (EFA); assay: as above
Outline: as §1

[7] = system: methicillin-resistant Staphylococcus epidermidis (MRSE); assay: as above
Outline: as §1

[8] = system: Streptococcus pneoumoniae (SPN); assay: as above
Outline: as §1

[9] = system: methicillin-sensitive Staphylococcus aureus (MSSA); assay: as above
Outline: as §1

[10] = system: A549 lung cancer cell line; assay: CCK-8 proliferation inhibition; conditions: Homo sapiens, A549, 72 h, concentration of 30 μM
Outline: (§2)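 Plating at 2000 cells/well, then incubation overnight at 37° C. Next, a range of compound concentrations for 72 hours (control 1‰ DMSO). Finally, medium decanted and CCK-8 diluted 1:10 added.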

[11] = system: MGC-803 gastric cancer cell line; assay: CCK-8 proliferation inhibition; conditions: Homo sapiens, MGC-803, 72 h, concentration of 30 μM
Outline: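 CCK-8 read-out after 72 h drug exposure; 2000 cells/well, overnight pre-culture (37° C, 5% CO2); vehicle 1‰ DMSO. Media: PC3 F12; MGC-803/Jurkat 1640; MCF-7 DMEM high glucose; all +10% newborn bovine serum, 1% antibiotics.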

[12] = system: BEL-7402 liver cancer cell line; assay: CCK-8 proliferation inhibition; conditions: concentration of 30 μM; for Inhibition of proliferation, Liver cancer BEL-7402: 72 hours, 30 µM
Outline: as §2

[13] = system: HCT-116 colorectal cancer cell line; assay: CCK-8 proliferation inhibition; conditions: concentration of 30 μM, 72 hours, CCK-8; for inhibition at 30 µM: Homo sapiens, HCT-116, 72 h
Outline: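 2000 cells/well, McCoy's 5A + 10% newborn bovine serum; overnight attach, 37° C./5% CO2. Cpd from DMSO stock diluted in medium, 72 h. Readout: CCK-8 (1:10). Ctrl 1‰ DMSO.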

[14] = read-out: HCT116 inhibition rate/%

`COC(=O)c1sccc1NC(=O)[C@@H]1CC2(CC2)CN1C(=O)[C@H](CC1CCCC1)CN(O)C=O` [Example 34] was tested, and the MIC (anti-bacterial activity) ([1]; strain MSSE 15-3) was 4 µg/mL (≈ 8.38 µM), the MIC (anti-bacterial activity) ([1]; strain MSSE 15-4) was 4 µg/mL (≈ 8.38 µM) and the MIC (anti-bacterial activity) ([1]; strain MSSE 15-5) was 4 µg/mL (≈ 8.38 µM). The MIC (anti-bacterial activity) ([1]; strain MSSE 15-6) was 1 µg/mL (≈ 2.09 µM), the MIC (anti-bacterial activity) ([2]; strain EFM 15-1) was 2 µg/mL (≈ 4.19 µM) and the MIC (anti-bacterial activity) ([2]; strain EFM 15-2) was 2 µg/mL (≈ 4.19 µM). It also gave an MIC (anti-bacterial activity) ([2]; strain EFM 15-3) of 0.25 µg/mL (≈ 0.523 µM), an MIC (anti-bacterial activity) ([2]; strain EFM 15-4) of 4 µg/mL (≈ 8.38 µM) and an MIC (anti-bacterial activity) ([2]; strain EFM 15-5) of 4 µg/mL (≈ 8.38 µM). The MIC (anti-bacterial activity) ([2]; strain EFM 15-6) was 4 µg/mL (≈ 8.38 µM), the MIC (anti-bacterial activity) ([3]; strain MRSA 15-1) was 1 µg/mL (≈ 2.09 µM) and the MIC (anti-bacterial activity) ([3]; strain MRSA 15-2) was 1 µg/mL (≈ 2.09 µM). It also gave an MIC (anti-bacterial activity) ([3]; strain MRSA 15-3) of 1 µg/mL (≈ 2.09 µM), an MIC (anti-bacterial activity) ([3]; strain MRSA 15-4) of 0.5 µg/mL (≈ 1.05 µM) and an MIC (anti-bacterial activity) ([4]; strain ECO+ 15-1) of 128 µg/mL (≈ 268 µM). The MIC (anti-bacterial activity) ([4]; strain ECO+ 15-2) was 128 µg/mL (≈ 268 µM), the MIC (anti-bacterial activity) ([4]; strain ECO+ 15-3) was 128 µg/mL (≈ 268 µM) and the MIC (anti-bacterial activity) ([4]; strain ECO+ 15-4) was 128 µg/mL (≈ 268 µM). It also gave an MIC (anti-bacterial activity) ([4]; strain ECO− 15-1) of 128 µg/mL (≈ 268 µM), an MIC (anti-bacterial activity) ([4]; strain ECO− 15-2) of 128 µg/mL (≈ 268 µM) and an MIC (anti-bacterial activity) ([4]; strain ECO− 15-3) of 128 µg/mL (≈ 268 µM). For the same molecule, the MIC (anti-bacterial activity) ([4]; strain ECO− 15-4) was 128 µg/mL (≈ 268 µM), the Anti-bacterial activity (MIC), strain BCA 14-10 [5] was 2 µg/mL and the MIC (anti-bacterial activity) ([5]; strain BCA 14-1) was 4 µg/mL (≈ 8.38 µM). The MIC (anti-bacterial activity) ([5]; strain BCA 14-4) was 4 µg/mL (≈ 8.38 µM), the MIC (anti-bacterial activity) ([5]; strain BCA 14-5) was 1 µg/mL (≈ 2.09 µM) and the MIC (anti-bacterial activity) ([5]; strain BCA 14-6) was 4 µg/mL (≈ 8.38 µM). It also gave an MIC (anti-bacterial activity) ([5]; strain BCA 14-7) of 2 µg/mL (≈ 4.19 µM), an MIC (anti-bacterial activity) ([5]; strain BCA 14-8) of 2 µg/mL (≈ 4.19 µM) and an MIC (anti-bacterial activity) ([6]; strain EFA 15-1) of 4 µg/mL (≈ 8.38 µM). For the same molecule, the MIC (anti-bacterial activity) ([6]; strain EFA 15-2) was 4 µg/mL (≈ 8.38 µM), the MIC (anti-bacterial activity) ([6]; strain EFA 15-3) was 2 µg/mL (≈ 4.19 µM) and the MIC (anti-bacterial activity) ([6]; strain EFA 15-4) was 4 µg/mL (≈ 8.38 µM). For the same molecule, the MIC (anti-bacterial activity) ([6]; strain EFA 15-5) was 4 µg/mL (≈ 8.38 µM), the MIC (anti-bacterial activity) ([6]; strain EFA 15-6) was 4 µg/mL (≈ 8.38 µM) and the MIC (anti-bacterial activity) ([6]; strain EFA 15-9) was 4 µg/mL (≈ 8.38 µM). It also gave an MIC (anti-bacterial activity) ([7]; strain MRSE 15-1) of 0.25 µg/mL (≈ 0.523 µM), an MIC (anti-bacterial activity) ([7]; strain MRSE 15-2) of 4 µg/mL (≈ 8.38 µM) and an MIC (anti-bacterial activity) ([7]; strain MRSE 15-3) of 4 µg/mL (≈ 8.38 µM). It also gave an MIC (anti-bacterial activity) ([7]; strain MRSE 15-7) of 4 µg/mL (≈ 8.38 µM), an MIC (anti-bacterial activity) ([8]; strain SPN 16-2) of 0.125 µg/mL (≈ 0.262 µM) and an MIC (anti-bacterial activity) ([8]; strain SPN 16-4) of 4 µg/mL (≈ 8.38 µM). The MIC (anti-bacterial activity) ([9]; strain MSSA 15-3) was 1 µg/mL (≈ 2.09 µM), the MIC (anti-bacterial activity) ([9]; strain MSSA 15-4) was 1 µg/mL (≈ 2.09 µM) and the MIC (anti-bacterial activity) ([9]; strain MSSA 15-5) was 1 µg/mL (≈ 2.09 µM). The MIC (anti-bacterial activity) ([9]; strain MSSA 15-6) was 1 µg/mL (≈ 2.09 µM), the inhibition at 30 µM [10] was 35% and the inhibition at 30 µM [11] was 26%. The inhibition at 30 µM ([12]; Homo sapiens, Bel-7402, 72 h) was over 50%, the “Inhibition of proliferation, Liver cancer BEL-7402” value [12] was 63% and the inhibition at 30 µM ([13]; Table 5, read-out: Inhibition of proliferation, Colorectal cancer HCT116) was at least 30%. The inhibition at 30 µM [13, 14] was 36%.

`O=CN(O)C[C@@H](CC1CCCC1)C(=O)N1CC2(CC2)C[C@H]1C(=O)Nc1ncco1` [Example 36] was tested, and the MIC (anti-bacterial activity) ([1]; strain MSSE 15-3) was 8 µg/mL (≈ 19.8 µM), the MIC (anti-bacterial activity) ([1]; strain MSSE 15-4) was 8 µg/mL (≈ 19.8 µM) and the MIC (anti-bacterial activity) ([1]; strain MSSE 15-5) was 8 µg/mL (≈ 19.8 µM). The MIC (anti-bacterial activity) ([1]; strain MSSE 15-6) was 8 µg/mL (≈ 19.8 µM), the MIC (anti-bacterial activity) ([2]; strain EFM 15-1) was 16 µg/mL (≈ 39.6 µM) and the MIC (anti-bacterial activity) ([2]; strain EFM 15-2) was 8 µg/mL (≈ 19.8 µM). The MIC (anti-bacterial activity) ([2]; strain EFM 15-3) was 2 µg/mL (≈ 4.94 µM), the MIC (anti-bacterial activity) ([2]; strain EFM 15-4) was 8 µg/mL (≈ 19.8 µM) and the MIC (anti-bacterial activity) ([2]; strain EFM 15-5) was 8 µg/mL (≈ 19.8 µM). For the same molecule, the MIC (anti-bacterial activity) ([2]; strain EFM 15-6) was 8 µg/mL (≈ 19.8 µM), the MIC (anti-bacterial activity) ([3]; strain MRSA 15-1) was 4 µg/mL (≈ 9.89 µM) and the MIC (anti-bacterial activity) ([3]; strain MRSA 15-2) was 8 µg/mL (≈ 19.8 µM). The MIC (anti-bacterial activity) ([3]; strain MRSA 15-3) was 4 µg/mL (≈ 9.89 µM), the MIC (anti-bacterial activity) ([3]; strain MRSA 15-4) was 8 µg/mL (≈ 19.8 µM) and the MIC (anti-bacterial activity) ([4]; strain ECO+ 15-1) was 8 µg/mL (≈ 19.8 µM). It also gave an MIC (anti-bacterial activity) ([4]; strain ECO+ 15-2) of over 32 µg/mL, an MIC (anti-bacterial activity) ([4]; strain ECO+ 15-3) of over 32 µg/mL and an MIC (anti-bacterial activity) ([4]; strain ECO+ 15-4) of over 32 µg/mL. The MIC (anti-bacterial activity) ([4]; strain ECO− 15-1) was over 32 µg/mL, the MIC (anti-bacterial activity) ([4]; strain ECO− 15-2) was 32 µg/mL (≈ 79.1 µM) and the MIC (anti-bacterial activity) ([4]; strain ECO− 15-3) was 32 µg/mL (≈ 79.1 µM). For the same molecule, the MIC (anti-bacterial activity) ([4]; strain ECO− 15-4) was 32 µg/mL (≈ 79.1 µM), the Anti-bacterial activity (MIC), strain BCA 14-10 [5] was 2 µg/mL and the MIC (anti-bacterial activity) ([5]; strain BCA 14-1) was 16 µg/mL (≈ 39.6 µM). For the same molecule, the MIC (anti-bacterial activity) ([5]; strain BCA 14-4) was 16 µg/mL (≈ 39.6 µM), the MIC (anti-bacterial activity) ([5]; strain BCA 14-5) was 4 µg/mL (≈ 9.89 µM) and the MIC (anti-bacterial activity) ([5]; strain BCA 14-6) was 16 µg/mL (≈ 39.6 µM). The MIC (anti-bacterial activity) ([5]; strain BCA 14-7) was 4 µg/mL (≈ 9.89 µM), the MIC (anti-bacterial activity) ([5]; strain BCA 14-8) was 8 µg/mL (≈ 19.8 µM) and the MIC (anti-bacterial activity) ([6]; strain EFA 15-1) was 16 µg/mL (≈ 39.6 µM). It also gave an MIC (anti-bacterial activity) ([6]; strain EFA 15-2) of 16 µg/mL (≈ 39.6 µM), an MIC (anti-bacterial activity) ([6]; strain EFA 15-3) of 16 µg/mL (≈ 39.6 µM) and an MIC (anti-bacterial activity) ([6]; strain EFA 15-4) of 16 µg/mL (≈ 39.6 µM). The MIC (anti-bacterial activity) ([6]; strain EFA 15-5) was 16 µg/mL (≈ 39.6 µM), the MIC (anti-bacterial activity) ([6]; strain EFA 15-6) was 16 µg/mL (≈ 39.6 µM) and the MIC (anti-bacterial activity) ([6]; strain EFA 15-9) was 16 µg/mL (≈ 39.6 µM). For the same molecule, the MIC (anti-bacterial activity) ([7]; strain MRSE 15-1) was 4 µg/mL (≈ 9.89 µM), the MIC (anti-bacterial activity) ([7]; strain MRSE 15-2) was 8 µg/mL (≈ 19.8 µM) and the MIC (anti-bacterial activity) ([7]; strain MRSE 15-3) was 8 µg/mL (≈ 19.8 µM). It also gave an MIC (anti-bacterial activity) ([7]; strain MRSE 15-7) of 8 µg/mL (≈ 19.8 µM), an MIC (anti-bacterial activity) ([8]; strain SPN 16-2) of 2 µg/mL (≈ 4.94 µM) and an MIC (anti-bacterial activity) ([8]; strain SPN 16-4) of 16 µg/mL (≈ 39.6 µM). For the same molecule, the MIC (anti-bacterial activity) ([9]; strain MSSA 15-3) was 8 µg/mL (≈ 19.8 µM), the MIC (anti-bacterial activity) ([9]; strain MSSA 15-4) was 8 µg/mL (≈ 19.8 µM) and the MIC (anti-bacterial activity) ([9]; strain MSSA 15-5) was 8 µg/mL (≈ 19.8 µM). It also gave an MIC (anti-bacterial activity) ([9]; strain MSSA 15-6) of 4 µg/mL (≈ 9.89 µM), an inhibition at 30 µM [10] of 26% and an inhibition at 30 µM [11] of 46%. For the same molecule, the “Inhibition of proliferation, Liver cancer BEL-7402” value [12] was 73%, the inhibition at 30 µM [13, 14] was over 50% and the HCT116 inhibition rate/% ([13]; 30 µM) was 60%.
